Data on 2 compounds can be found in patent US7718390B2, “Toxoplasma gondii cylclic GMP dependent protein kinase G as a chemotherapeutic target for antiprotozoal agents” (priority 1999, dated 2010).

The subject of assay [1] is E. tenella PKG (120 kDa protein). Briefly: Competitive binding assay using [3H] Inhibitor Compound. More on the design: species or system Eimeria tenella. To be noted: purified native PKG fraction. The procedure:
PKG is incubated with appropriately diluted [^3H] Inhibitor Compound for 60 minutes on ice and free ligand is separated from bound ligand by elution through 0.8 ml G-25 gel filtration columns (purchased from AGTC). The void volume, containing ligand-bound protein, is collected and radioactivity assessed by liquid scintillation counting. For competitive binding studies, excess or appropriately diluted cold competitor(s) are added simultaneously with, or 0.01-5 minutes before, the addition of radiolabeled compound. The concentration of the test compound required to inhibit 50% (IC50) of the binding of the labeled inhibitor to the parasite drug binding protein(s) is calculated.
For the competitive binding assay PKG may be the S100 fraction, crude preparation containing PKG activity, or recombinant PKG. Generally, the PKG preparation contains 20-50 μg of protein.
The S100 fraction was dialyzed against 2 L of Buffer A (30 mM sodium phosphate, pH 7.4, 1 mM DTT, 1 mM EDTA, 20% glycerol, 10 mM sodium fluoride, 0.1 mM sodium orthovanadate) overnight at room temperature. The dialysate was centrifuged at 100,000×g for 1 hour and the pellet discarded. […]
(d) cGMP agarose affinity chromatography. […] Fractions were analyzed for [^3H]-Inhibitor Compound binding, PKG activity and by silver staining following polyacrylamide gel electrophoresis. […]

Another assay deals with E. tenella PKG (Eimeria tenella, UniProt Q8MMZ8). Briefly: biochemical. It counts as biochemical. The note with it: for IC50: read-out: IC50, inhibition of PKG catalytic activity.

Read-outs that look alike come from different tables or passages of the source.

E. tenella PKG, sequence (Q8MMZ8 2-1003): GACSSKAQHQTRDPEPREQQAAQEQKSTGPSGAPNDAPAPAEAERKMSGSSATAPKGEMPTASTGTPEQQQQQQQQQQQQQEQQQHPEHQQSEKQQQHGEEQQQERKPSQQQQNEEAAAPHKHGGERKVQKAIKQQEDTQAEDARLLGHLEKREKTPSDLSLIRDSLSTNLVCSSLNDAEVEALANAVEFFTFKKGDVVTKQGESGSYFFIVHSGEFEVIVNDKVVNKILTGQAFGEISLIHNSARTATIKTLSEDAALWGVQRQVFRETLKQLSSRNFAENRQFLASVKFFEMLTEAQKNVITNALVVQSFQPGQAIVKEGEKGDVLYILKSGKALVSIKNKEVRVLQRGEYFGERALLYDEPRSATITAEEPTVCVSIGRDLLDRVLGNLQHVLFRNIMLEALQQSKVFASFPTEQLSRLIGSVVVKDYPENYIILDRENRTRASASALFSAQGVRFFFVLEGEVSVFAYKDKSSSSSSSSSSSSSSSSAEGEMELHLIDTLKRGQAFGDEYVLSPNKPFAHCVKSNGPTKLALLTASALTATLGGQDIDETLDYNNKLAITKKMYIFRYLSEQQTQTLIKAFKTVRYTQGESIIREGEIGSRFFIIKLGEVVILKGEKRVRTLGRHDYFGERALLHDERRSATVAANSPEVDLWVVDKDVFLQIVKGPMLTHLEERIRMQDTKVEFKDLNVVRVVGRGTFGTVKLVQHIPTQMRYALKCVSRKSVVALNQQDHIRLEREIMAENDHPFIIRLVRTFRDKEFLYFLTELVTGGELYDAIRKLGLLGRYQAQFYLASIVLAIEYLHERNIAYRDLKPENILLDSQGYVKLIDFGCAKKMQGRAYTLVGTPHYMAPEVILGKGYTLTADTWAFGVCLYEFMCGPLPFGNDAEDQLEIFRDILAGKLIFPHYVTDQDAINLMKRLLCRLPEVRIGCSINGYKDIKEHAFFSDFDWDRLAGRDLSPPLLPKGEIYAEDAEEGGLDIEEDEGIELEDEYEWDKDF

With `CN1CCC(c2cc(-c3ccncc3)c(-c3ccc(F)cc3)[nH]2)CC1` [Inhibitor Compound, 2-(4-fluorophenyl)-5-(N-methylpiperidin-4-yl)-3-(4-pyridyl)pyrrole], the “binding to the 120 kDa E. tenella protein (PKG)” value in assay [1] is “specifically binds”. Further, the IC50 on E. tenella PKG (native E. tenella PKG) was below 5 nM; at E. tenella PKG (recombinant expressed E. tenella PKG (Et.PKG7, Sf9 cells)), below 5 nM.

As for `Nc1nc2c(ncn2[C@@H]2O[C@@H]3COP(=O)(O)O[C@H]3[C@H]2O)c(=O)[nH]1` [cGMP], at E. tenella PKG (biochemically purified native E. tenella protein, compared with absence of cyclic nucleotide cofactors), the “stimulation of kinase activity by cyclic nucleotide cofactor” value is given as “greater than 400 fold”.

For orientation: IC50 means the concentration needed to halve the response being measured.
